{
  "source": "paper PMC9190012",
  "about": "“Heparin activation of protein Z-dependent protease inhibitor (ZPI) allosterically blocks protein Z activation through an extended heparin-binding site” (The Journal of Biological Chemistry, 2022)",
  "key": {"[1]": {"molecular_target": "T1, NBD-ZPI (Homo sapiens, UniProt Q9UK55, C190A/C285S/K260C)", "T1 construct": "made in house; host or cells: Escherichia coli", "T1 sequence (Q9UK55 22-444 C190A/K260C/C285S)": "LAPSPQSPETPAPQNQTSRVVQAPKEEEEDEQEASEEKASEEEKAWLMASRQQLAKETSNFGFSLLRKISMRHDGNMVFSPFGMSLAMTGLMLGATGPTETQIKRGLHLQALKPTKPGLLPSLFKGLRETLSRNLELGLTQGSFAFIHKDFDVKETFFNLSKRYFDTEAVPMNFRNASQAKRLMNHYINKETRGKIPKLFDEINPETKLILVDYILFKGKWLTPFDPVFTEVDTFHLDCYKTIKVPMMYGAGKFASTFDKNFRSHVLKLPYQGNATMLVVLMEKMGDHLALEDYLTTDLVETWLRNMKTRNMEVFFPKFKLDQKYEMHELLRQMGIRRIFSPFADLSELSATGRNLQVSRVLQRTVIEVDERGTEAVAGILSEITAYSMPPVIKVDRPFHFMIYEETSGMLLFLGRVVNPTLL", "experiment": "Competitive binding titrations of NBD-ZPI–PZ complex with heparins (quenching of NBD fluorescence)", "settings": "competitive titration of NBD-ZPI–PZ complex (50 nM ZPI/62 nM PZ), 0.1 M NaCl buffer; read-out: ZPI–heparin KD,H", "method": "Equilibrium binding of heparin to NBD-ZPI was measured by competitive binding titrations in which heparins of various lengths were titrated into NBD-ZPI (50 nM) complexed with a molar excess of PZ (62 nM) in a lower ionic strength buffer (0.1 M NaCl) and heparin binding followed by the quenching of NBD-ZPI–PZ complex fluorescence. Titrations were computer fit by the competitive binding equation, ΔFmax−ΔFobs/ΔFmax=Fobs−F∞/F0−F∞=[ZPI]0+[PZ]0+KD,PZ×(1+[H]0/KD,H)−([ZPI]0+[PZ]0+KD,PZ×(1+[H]0/KD,H))^2−4×[ZPI]0×[PZ]0/[ZPI]0+[PZ]0+KD,PZ−([ZPI]0+[PZ]0+KD,PZ)^2−4×[ZPI]0×[PZ]0\nin which ΔFobs is the observed change in fluorescence of PZ complexed and uncomplexed NBD-ZPI before (Fo) and after heparin addition (Fobs), ΔFmax is the maximal fluorescence change upon reaching the end point fluorescence of NBD-ZPI after complete dissociation of PZ (F∞), [ZPI]o, [PZ]o, and [H]o are total concentrations of NBD-ZPI, PZ, and heparin, respectively, and KD,PZ and KD,H are dissociation constants for the NBD-ZPI–PZ and the NBD-ZPI–heparin interactions, respectively. […] In fitting data to the aforementioned equation, KD,PZ was fixed at the value determined by titration of NBD-ZPI with PZ in the absence of heparin, and KD,H was the fitted parameter."}, "[2]": {"molecular_target": "T2, NBD-ZPI–PZ interactions (Homo sapiens, UniProt Q9UK55, C190A/C285S/K260C)", "T2 construct": "made in house; host or cells: Escherichia coli", "T2 sequence (Q9UK55 22-444 C190A/K260C/C285S)": "T1 sequence (Q9UK55 22-444 C190A/K260C/C285S)", "experiment": "Titrations of NBD-ZPI with PZ in absence and presence of fixed levels of heparin", "format": "binding", "settings": "read-out: ZPI–heparin KD,H (predicted)", "method": "The effect of heparin on PZ binding to ZPI was measured by titrations of 50 nM NBD-ZPI with PZ in the absence and presence of different fixed levels of heparins of various lengths in the higher ionic strength buffer used for emission spectra. Titrations were monitored from the enhancement of NBD-ZPI fluorescence that signals PZ binding. These titrations were fit by the quadratic binding equation, ΔFobs/F0=ΔFmax/F0×[ZPI]0+[PZ]0+KD,PZapp−([ZPI]0+[PZ]0+KD,PZapp)^2−4×[ZPI]0×[PZ]0/2×[ZPI]0 where ΔFobs/Fo and ΔFmax/Fo are the observed and maximal fluorescence changes after addition of PZ expressed relative to the initial free NBD-ZPI fluorescence, respectively, and KD,PZapp = KD,PZ × (1 + [H]o/KD,H) is the apparent dissociation constant for the ZPI–PZ interaction in the absence or presence of heparin. The fitted parameters were KD,PZapp and ΔFmax/Fo."}},
  "note": "Where two headings read alike, the source gives them in different places.",
  "data": [
    {"compound": "CO[C@H]1O[C@H](COS(=O)(=O)O)[C@@H](O[C@@H]2O[C@@H](C(=O)O)[C@@H](O[C@H]3O[C@H](COS(=O)(=O)O)[C@@H](O[C@@H]4O[C@H](C(=O)O)[C@@H](O[C@H]5O[C@H](COS(=O)(=O)O)[C@@H](O)[C@H](O)[C@H]5NS(=O)(=O)O)[C@H](O)[C@H]4O)[C@H](OS(=O)(=O)O)[C@H]3NS(=O)(=O)O)[C@H](O)[C@H]2OS(=O)(=O)O)[C@H](O)[C@H]1NS(=O)(=O)O", "note": "[H5, fondaparinux]", "values": [
      {"measurement": "Kd", "setting": "[1]", "result": "32.4 ± 1.9", "unit": "µM"},
      {"measurement": "Kd", "setting": "[2]; calculated from KD,PZapp at 211 μM heparin", "result": 53, "unit": "µM"},
      {"measurement": "Kd", "setting": "[2]; calculated from KD,PZapp at 423 μM heparin", "result": 44, "unit": "µM"}
    ]}
  ]
}
